Values joined by “and” are separate entries in the source; they are usually repeats but may differ in a detail not shown here. Equal values may be shown once.
Legend:
[1] = biological target: T1, hemoglobin (Homo sapiens, UniProt P68871+P69905); test: In vitro whole blood studies (multi-point tonometry and blood gas analysis); format: cell-based; conditions: for Whole Blood Δp50 mm Hg: Table II; for ΔP50 ± S.D. (P50 effector − P50control) / P50e (P50 value in the presence of the effector): Table VI, 2.5 mM Hb, 5.0 mM effector; for P50e (P50 value in the presence of the effector): single runs, DMSO stock
T1 construct: The whole blood samples were collected in heparinized tubes from healthy volunteers; from tissue; host or cells: human whole blood (heparinized) from healthy volunteers
Procedure: (§1) Structure-allosteric activity relationships were determined from the synthetic chiral effectors comparing the shift in the oxygen binding curve of Hb solutions using a Hemox-Analyzer. In vitro biological activity testing in the presence of plasma proteins was also performed on selected enantiomers and racemates (multi-point tonometry and blood gas analysis) to screen for candidates with potential clinical use. SAR studies compared the degree in shift in P50 values, i.e., the partial pressure of molecular oxygen necessary to half-saturate hemoglobin. An effector that decreases Hb oxygen affinity increases the P50 value relative to the control. Thus, the activity or potency of each analog could be expressed by the ratio P50 (effector)/P50(control). Tables and II and III summarize the p50 values obtained using human whole blood, while Tables IV and V summarize the P50 and the Hill coefficient values (n50) at half-saturation obtained using Hemox-analyzer. The slope of the log of the oxygen binding curves is known as the Hill coefficient. The Hill coefficient measures the degree of cooperativity in binding for an allosteric protein, the normal range for human blood is 2.7-3.2. Table VI presents the results from the whole blood studies given as a ΔP50 and Hill coefficient (n50) values for the enantiomers and racemates.
The whole blood samples were collected in heparinized tubes from healthy volunteers and stored over ice. The sodium salts of the compounds were prepared as described earlier. A 200 mM stock solution of the effector was prepared in DMSO. A 5.0 mM test solution was prepared from 50 μL of the 200 mM test solution and 1950 μL of whole blood. The blood samples were incubated in IL 237 tonometers (Instrumentation Laboratories, Inc. Lexington, Mass.) for approximately 10-12 min at 37° C. and equilibrated at three separate concentrations of O2 (20%, 40%, and 60%). After equilibration at each concentration of O2, a sample was removed via syringe and aspirated into a IL 1420 Automated Blood Gas Analyzer (Instrumentation Laboratories, Inc. Lexington, Mass.) and a IL 482 and IL 682 Co-oximeter (Instrumentation Laboratories, Inc. Lexington, Mass.) to determine the pH, pCO2, pO2 and the hemoglobin oxygen saturation values (sO2), respectively. The measured values for pO2 and sO2 at each oxygen saturation level were then subjected to a non-linear regression analysis using the program Scientist (Micromath, Salt Lake City, Utah) to calculate the P50 and Hill coefficient values.

[2] = biological target: T2, purified stripped human adult hemoglobin (Homo sapiens, UniProt P68871+P69905); test: Hemoglobin solution oxygen equilibrium studies (HEMOX-analyzer); format: biochemical; conditions: for n50 (Hill coefficient at 50% saturation): n50 control 2.7; for P50e/P50c: ratio to P50 control with no effector (5.0 mmHg)
T2 construct: using purified stripped human adult hemoglobin as described previously; from tissue
Procedure: as §1, with “Tables and II and III summarize the p50 values obtained using human whole blood, while Tables IV and V summarize the P50 and the Hill coefficient values (n50) at half-saturation obtained using Hemox-analyzer.” left out, “2.7-3.2.” for “2.7-3.2. Table VI presents the results from the whole blood studies given as a ΔP50 and Hill coefficient (n50) values for the enantiomers and racemates.”
The effectors were prepared as 10 mM stock solutions in 100 mM NaCl bis-Tris buffer, pH 7.2. After the addition of an excess of NaHCO3, the solution was warmed to 60° C. and stirred for several hours. The solutions were back titrated carefully to pH 7.2 at 25° C. prior to use. Oxygen equilibrium measurements were performed with the HEMOX-analyzer (TCS Medical products, Southampton, Pa.) using purified stripped human adult hemoglobin as described previously. 4 mL of buffer, 100 mM NaCl, 50 mM bis-Tris at pH 7.2, is added to a cuvette in the HEMOX, followed by 200 μL of the 10 mM effector stock solution. Hemoglobin is then added to achieve a final Hb concentration of […] on heme basis. Catalase (20 μg/mL) and 50 mM EDTA were added to limit oxidation of the hemes. […] The saturation of hemoglobin was determined spectrophotometrically with a dual wavelength spectrophotometer (577 nm and 586.2 nm). The solution was stirred constantly during the 45-60 min recordings. The P50 and n50 values were calculated by linear regression analysis from data points comprised between 40 and 60% oxygen saturation.

[3] = biological target: T2, purified stripped human adult hemoglobin; test: as above; format: biochemical; conditions: 0.5 mM effector, 100 mM bis-Tris buffer, pH 7.2
[4] = Table IV, 0.5 mM effector, pH 7.2
[5] = Table V resolved enantiomers, 0.5 mM effector, pH 7.2

T2 sequence (P69905 2-142 limits assumed): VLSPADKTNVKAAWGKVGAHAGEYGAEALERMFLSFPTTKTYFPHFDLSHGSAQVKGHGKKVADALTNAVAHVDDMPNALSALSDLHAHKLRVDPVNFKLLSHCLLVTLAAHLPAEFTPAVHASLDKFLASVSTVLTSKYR
T2 sequence (P68871 2-147 limits assumed): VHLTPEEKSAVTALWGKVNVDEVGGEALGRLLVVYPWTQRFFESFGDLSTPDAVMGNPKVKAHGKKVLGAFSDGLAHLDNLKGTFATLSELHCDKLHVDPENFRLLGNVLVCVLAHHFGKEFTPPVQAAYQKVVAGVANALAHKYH
T1 sequence (P69905 2-142 limits assumed): as the sequence (P69905 2-142 limits assumed) above
T1 sequence (P68871 2-147 limits assumed): as the sequence (P68871 2-147 limits assumed) above

Structure (SMILES)	Whole Blood Δp50 mm Hg [1] [mm Hg]	n50 (Hill coefficient at 50% saturation) [2, 4]	P50e/P50c [2, 4]	P50e (oxygen pressure at which Hb is 50% saturated with oxygen in the presence of the effector) ([3]; Table IV) [mmHg]	n50 (Hill coefficient at 50% saturation) [2, 5]	P50e/P50c ([2]; Table V resolved enantiomers)	P50e (oxygen pressure at which Hb is 50% saturated with oxygen in the presence of the effector) ([3]; Table V resolved enantiomers) [mmHg]	ΔP50 ± S.D. (P50 effector − P50control) [1] [mmHg]	P50e (P50 value in the presence of the effector) [1]
Cc1cc(C)cc(NC(=O)Cc2ccc(OC3(C(=O)O)CCC(C)C3)cc2)c1 (stereo not shown) [Compound 3]	20.3	2.5	2.6	13					
CCC(C)(Oc1ccc(CC(=O)Nc2cc(C)cc(C)c2)cc1)C(=O)O (stereo not shown) [Compound 21, 2-[4-[[(3,5-dimethylanilino)carbonyl]methyl]phenoxy]-2-methylbutanoic acid]		2.4	2.7	13					
Cc1cc(Cl)cc(NC(=O)Cc2ccc(OC3(C(=O)O)CCCC3C)cc2)c1 (stereo not shown) [Compound 8, 1-[4-[[(3-chloro-5-methylanilino)carbonyl]methyl]phenoxy]-2-methylcyclopentane carboxylic acid]	25	2.4	4.4	22					
CCC(Oc1ccc(CC(=O)Nc2cc(C)cc(C)c2)cc1)C(=O)O (single isomer, unassigned; (-)) [(−) 20]					2.8	2	9.8		
Cc1cc(C)cc(NC(=O)Cc2ccc(OC3(C(=O)O)CCOC3C)cc2)c1 (stereo not shown) [Compound 2, 3-[4-[[(3,5-dimethylanifino)carbonyl]methyl]phenoxy]-2-methyltetrahydro-3-furan carboxylic acid]	15.2	2.4	1.5	7.6					
Cc1cc(C)cc(NC(=O)Cc2ccc(OC3(C(=O)O)CCCC3)cc2)c1 [JP7, 1-[4-(((3,5-dimethylanilino)carbonyl)methyl)phenoxy]cyclopentanecarboxylic acid, reference compound]		2.4	5.1	26				42.3 ± 4.9	74.7 mmHg and 67.7 mmHg
Cc1cc(Cl)cc(NC(=O)Cc2ccc(OC(C)(C)C(=O)O)cc2)c1 [KDD86, reference compound]		2.4	4.4	21					
Cc1cc(C)cc(NC(=O)Cc2ccc(OC(C)C(=O)O)cc2)c1 (single isomer, unassigned; (+)) [(+) 18, (+)-2-[4-[[(3,5-dimethylanilino)carbonyl]methyl]phenoxy]-propionic acid]					2.6	2	9.8	20.7 ± 0.7	47.4 mmHg and 48.7 mmHg
COCC(C)(Oc1ccc(CC(=O)Nc2cc(C)cc(C)c2)cc1)C(=O)O (stereo not shown) [Compound 10, 2-[4-[[(3,5-dimethylanilino)carbonyl]methyl]phenoxy]-3-methoxy-2-methylpropanoic acid]	24	2.4	1.7	8.4					
Cc1cc(C)cc(NC(=O)Cc2ccc(OC3(C(=O)O)CCOCC3)cc2)c1 [Compound 4, 4-[4-[[(3,5-dimethylanilino)carbonyl]methyl]phenoxy]tetrahydro-2H-4-pyrancarboxylic acid]	17.8	2.4	1.5	7.6					
Cc1cc(C)cc(NC(=O)Cc2ccc(OC3(C(=O)O)CCCC3C)cc2)c1 (racemic) [Compound 1, 1-[4-[[(3,5-dimethylanilino)carbonyl]methyl]phenoxy]-2-methylcyclopentane carboxylic acid]	45.4	2.3	4.3	22				40.1 ± 0.9	66 mmHg and 67.2 mmHg
CC1CCC(Oc2ccc(CC(=O)Nc3ccc4c(c3)CCC4)cc2)(C(=O)O)C1 (stereo not shown) [Compound 5]	12.7	2.6	2.5	13					
Cc1cc(C)cc(NC(=O)Cc2ccc(OC(C)C(=O)O)cc2)c1 (single isomer, unassigned; (-)) [(−) 18, (−)-2-[4-[[(3,5-dimethylanilino)carbonyl]methyl]phenoxy]-propionic acid]					2.5	1.3	6.6	12.3 ± 0.6	39.7 mmHg and 40.5 mmHg
CC1CCCC1(Oc1ccc(CC(=O)Nc2ccc3c(c2)CCC3)cc1)C(=O)O (stereo not shown) [Compound 7]	25.0	2.6	2.8	14					
CC(C)(Oc1ccc(CC(=O)Nc2ccc3c(c2)CCC3)cc1)C(=O)O [RSR46, reference compound]		2.6	3	15					
Cc1cc(C)cc(NC(=O)Cc2ccc(OC(F)C(=O)O)cc2)c1 (stereo not shown) [Compound 19, 2-[4-[[3,5-dimethylanilino)carbonyl]methyl]phenoxy-2-fluoroacetic acid]		2.5	1.2	5.9					
CCC(Oc1ccc(CC(=O)Nc2cc(C)cc(C)c2)cc1)C(=O)O (racemic) [Compound 20, 2-[4-[[(3,5-dimethylanilino)carbonyl]methyl]phenoxy]-butanoic acid]		2.7	2.6	13					
CCC(Oc1ccc(CC(=O)Nc2cc(C)cc(C)c2)cc1)C(=O)O (single isomer, unassigned; (+)) [(+) 20]					2.7	3.6	18		
